# Assay results taken from US20260242352A1, “INHIBITION OF SHIP1 AS A THERAPEUTIC STRATEGY FOR THE TREATMENT OF ALZHEIMER'S DISEASE” (The Trustees of Indiana University, priority 2022, published 2026).
# Target: T1, HiBit-labeled full length SHIP1 protein (Homo sapiens, UniProt Q92835)
# T1 construct: thermal stability of a HiBit-labeled full length SHIP1 protein in intact cells; expressed in transfected cells; host or cells: HMC3 (stably transfected)
# T1 sequence (Q92835 1-1189): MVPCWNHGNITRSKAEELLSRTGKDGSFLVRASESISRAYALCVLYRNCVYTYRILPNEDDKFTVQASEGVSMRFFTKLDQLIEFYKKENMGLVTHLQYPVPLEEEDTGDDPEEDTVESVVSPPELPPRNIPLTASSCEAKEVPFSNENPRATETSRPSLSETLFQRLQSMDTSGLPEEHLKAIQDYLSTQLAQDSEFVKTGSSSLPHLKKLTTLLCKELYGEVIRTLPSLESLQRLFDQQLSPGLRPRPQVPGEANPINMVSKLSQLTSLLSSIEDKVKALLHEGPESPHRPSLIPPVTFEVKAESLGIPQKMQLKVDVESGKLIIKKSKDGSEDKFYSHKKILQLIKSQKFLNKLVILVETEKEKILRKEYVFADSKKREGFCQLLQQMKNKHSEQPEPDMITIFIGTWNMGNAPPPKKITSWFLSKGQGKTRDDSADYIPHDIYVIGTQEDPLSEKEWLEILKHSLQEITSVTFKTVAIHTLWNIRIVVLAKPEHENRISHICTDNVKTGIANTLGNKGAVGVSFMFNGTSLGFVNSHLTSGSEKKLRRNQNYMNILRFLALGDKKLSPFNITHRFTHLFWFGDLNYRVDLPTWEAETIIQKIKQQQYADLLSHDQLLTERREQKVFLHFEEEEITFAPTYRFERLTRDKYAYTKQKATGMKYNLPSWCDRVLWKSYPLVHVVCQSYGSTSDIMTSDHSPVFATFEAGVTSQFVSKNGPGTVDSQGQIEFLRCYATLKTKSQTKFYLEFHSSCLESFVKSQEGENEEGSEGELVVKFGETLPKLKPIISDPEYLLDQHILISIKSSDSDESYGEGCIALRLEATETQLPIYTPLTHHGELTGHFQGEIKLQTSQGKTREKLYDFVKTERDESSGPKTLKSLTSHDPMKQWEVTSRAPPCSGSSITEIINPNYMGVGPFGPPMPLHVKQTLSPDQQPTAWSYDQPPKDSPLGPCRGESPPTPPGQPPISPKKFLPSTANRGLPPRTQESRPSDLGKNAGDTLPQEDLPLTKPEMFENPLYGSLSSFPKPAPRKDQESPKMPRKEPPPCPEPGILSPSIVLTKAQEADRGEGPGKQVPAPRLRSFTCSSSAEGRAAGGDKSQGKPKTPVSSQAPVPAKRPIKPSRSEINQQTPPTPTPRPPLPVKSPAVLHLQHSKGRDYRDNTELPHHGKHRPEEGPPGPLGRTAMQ
# Experiment: Cellular thermal shift assay (SplitLuc CETSA), thermal shift format
# Assay type: cell-based
# Set-up: key: Y = ΔTm difference of 40 μM compound treated cells from control is Tm > 3SD; N: otherwise negative
# Conditions: 40 μM compound for 60 min, HMC3/HiBit-INPP5D cells, 38-52° C. gradient; target engagement positive/negative
# Protocol: Cellular thermal shift assay (CETSA). […] This assay was run in the following two formats with HMC3/HiBit-INPP5D stably transfected cells.
# 1. Thermal shift: cells were treated with 40 μM compound for 60 min, then heated with a temperature gradient covering 38-52° C. for 3 min before luminescence detection. Mean and standard deviation of control Tm were determined to generate a “Mean+3SD” ΔTm, which was used as threshold to determine a significant ΔTm of compound from control. When the difference of ΔTm of compound treated cells from control Tm>3SD, the compound was considered positive for target engagement, otherwise negative. SD=average standard deviation.
# See Martinez et al. (2018) Sci Rep 8: p. 9472; Oh-Hashi et al. (2017) Biochem Biophys Rep 12: pp. 40-45. This assay was run in the following two formats with HMC3/HiBit-INPP5D stably transfected cells.
# Thermal shift: cells were treated with 40 μM compound for 60 min, then heated with a temperature gradient covering 38-52° C. for 3 min before luminescence detection. Mean and standard deviation of control Tm were determined to generate a “Mean+3SD” ΔTm, which was used as threshold to determine a significant ΔTm of compound from control. When the difference of ΔTm of compound treated cells from control Tm>3SD, the compound was considered positive for target engagement, otherwise negative. SD=average standard deviation.
row,Compound,CETSA SP
1,"CC(C)(C)OC(=O)N1CCC(n2cc(-c3cncc(OCc4ccccc4Cl)c3)cn2)CC1 [Compound 1, tert-butyl 4-(4-{5-[(2-chlorophenyl)methoxy]pyridin-3-yl}-1H-pyrazol-1-yl)piperidine-1-carboxylate]",N
2,"CC(C)(C)OC(=O)N1CCC(n2cc(-c3cncc(OCc4ccccc4F)c3)cn2)CC1 [Compound 2, tert-butyl 4-(4-(5-((2-fluorobenzyl)oxy)pyridin-3-yl)-1H-pyrazol-1-yl)piperidine-1-carboxylate]",N
3,"Cc1ccccc1COc1cncc(-c2cnn(C3CCN(C(=O)OC(C)(C)C)CC3)c2)c1 [Compound 3, tert-butyl 4-(4-(5-((2-methylbenzyl)oxy)pyridin-3-yl)-1H-pyrazol-1-yl)piperidine-1-carboxylate]",N
4,"CC(C)(C)OC(=O)N1CCC(n2cc(-c3cncc(OCc4ccccc4)c3)cn2)CC1 [Compound 4, tert-butyl 4-(4-(5-(benzyloxy)pyridin-3-yl)-1H-pyrazol-1-yl)piperidine-1-carboxylate]",N
5,"CC(C)(C)OC(=O)N1CCC(n2cc(-c3cncc(OCc4c(Cl)cccc4Cl)c3)cn2)CC1 [Compound 5, tert-butyl 4-(4-(5-((2,6-dichlorobenzyl)oxy)pyridin-3-yl)-1H-pyrazol-1-yl)piperidine-1-carboxylate]",N
6,"CC(C)(C)OC(=O)N1CCC(n2cc(-c3cncc(OCc4ccc(Br)cc4)c3)cn2)CC1 [Compound 7, tert-butyl 4-(4-(5-((4-bromobenzyl)oxy)pyridin-3-yl)-1H-pyrazol-1-yl)piperidine-1-carboxylate]",Y*
7,"Cl.Clc1ccccc1COc1cncc(-c2cnn(C3CCNCC3)c2)c1 [Compound 9, 3-((2-chlorobenzyl)oxy)-5-(1-(piperidin-4-yl)-1H-pyrazol-4-yl)pyridine hydrochloride]",Y
8,"Cl.Clc1ccc(COc2cncc(-c3cnn(C4CCNCC4)c3)c2)c(Cl)c1 [Compound 10, 3-((2,4-dichlorobenzyl)oxy)-5-(1-(piperidin-4-yl)-1H-pyrazol-4-yl)pyridine hydrochloride]",Y
9,"CC(C)(C)CCN1CCC(n2cc(-c3cncc(OCc4ccccc4Cl)c3)cn2)CC1 [Compound 15, 3-((2-chlorobenzyl)oxy)-5-(1-(1-(3,3-dimethylbutyl)piperidin-4-yl)-1H-pyrazol-4-yl)pyridine]",N
10,"CC(C)(C)CC(=O)N1CCC(n2cc(-c3cncc(OCc4ccccc4Cl)c3)cn2)CC1 [Compound 16, 1-(4-(4-(5-((2-chlorobenzyl)oxy)pyridin-3-yl)-1H-pyrazol-1-yl)piperidin-1-yl)-3,3-dimethylbutan-1-one]",N
11,"C[C@H](Oc1cncc(-c2cnn(C3CCNCC3)c2)c1)c1ccccc1Cl [Compound 21, (S)-3-(1-(2-chlorophenyl)ethoxy)-5-(1-(piperidin-4-yl)-1H-pyrazol-4-yl)pyridine]",Y
12,"C[C@@H](Oc1cncc(-c2cnn(C3CCNCC3)c2)c1)c1ccccc1Cl [Compound 22, (R)-3-(1-(2-chlorophenyl)ethoxy)-5-(1-(piperidin-4-yl)-1H-pyrazol-4-yl)pyridine]",Y
13,"C[C@@H](Oc1cncc(-c2cnn(C3CCNCC3)c2)c1)c1ccc(Cl)cc1 [Compound 23, (R)-3-(1-(4-chlorophenyl)ethoxy)-5-(1-(piperidin-4-yl)-1H-pyrazol-4-yl)pyridine]",Y
14,"Cc1ccccc1COc1cncc(-c2cnn(C3CCNCC3)c2)c1 [Compound 25, 3-[(2-Methylphenyl)methoxy]-5-[1-(piperidin-4-yl)-1H-pyrazol-4-yl]pyridine]",Y
15,"Clc1ccccc1COc1cncc(-c2ccn(C3CCNCC3)n2)c1 [Compound 26, 3-((2-chlorobenzyl)oxy)-5-(1-(piperidin-4-yl)-1H-pyrazol-3-yl)pyridine]",Y
16,"Clc1ccccc1COc1cncc(-n2ccc(C3CCNCC3)n2)c1 [Compound 27, 3-((2-chlorobenzyl)oxy)-5-(3-(piperidin-4-yl)-1H-pyrazol-1-yl)pyridine]",Y
17,"Clc1ccccc1COc1cncc(-n2cc(C3CCNCC3)cn2)c1 [Compound 28, 3-((2-chlorobenzyl)oxy)-5-(4-(piperidin-4-yl)-1H-pyrazol-1-yl)pyridine]",Y
18,"Clc1ccccc1COc1cccc(-c2cnn(C3CCNCC3)c2)c1 [Compound 29, 4-(4-(3-((2-chlorobenzyl)oxy)phenyl)-1H-pyrazol-1-yl)piperidine]",N
